The values below come from US10138222B2, “Substituted benzamides as RIPK2 inhibitors” (Boehringer Ingelheim International GmbH, priority 2016, dated 2018).

SMILES strings stand for the structures.

As usually defined, the IC50 is the midpoint of a concentration-inhibition curve.

Chain of RIPK2 (O43353 whole entry): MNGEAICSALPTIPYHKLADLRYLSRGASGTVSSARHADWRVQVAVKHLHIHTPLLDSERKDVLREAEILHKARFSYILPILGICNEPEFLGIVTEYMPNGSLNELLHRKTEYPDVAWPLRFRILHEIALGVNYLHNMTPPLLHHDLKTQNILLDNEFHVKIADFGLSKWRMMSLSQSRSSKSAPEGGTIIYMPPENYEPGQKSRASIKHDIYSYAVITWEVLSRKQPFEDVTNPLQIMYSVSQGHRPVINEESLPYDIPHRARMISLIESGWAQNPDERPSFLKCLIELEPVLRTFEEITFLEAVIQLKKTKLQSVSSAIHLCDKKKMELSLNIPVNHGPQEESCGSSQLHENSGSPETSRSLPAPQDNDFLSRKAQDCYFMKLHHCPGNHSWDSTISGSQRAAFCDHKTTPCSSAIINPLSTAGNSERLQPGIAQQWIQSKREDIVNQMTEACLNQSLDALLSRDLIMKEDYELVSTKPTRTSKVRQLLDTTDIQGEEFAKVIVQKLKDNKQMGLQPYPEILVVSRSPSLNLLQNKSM

The test addresses RIPK2 (Homo sapiens (Human), UniProt O43353). The experiment in a line: RIPK2 inhibition, ADP-Glo Kinase Assay. In kind it is biochemical. The following applies: 8His-RIPK2 FL enzyme 8 nM, ATP 5 μM, 15 minutes pre-incubation, 60 minutes at 37° C., luminescence. Put shortly:
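Full-length 8His-RIPK2 (8 nM) preincubated 15 min at RT with compound (1% DMSO), then 5 μM ATP added for 60 min at 37 °C in HEPES pH 7.5 buffer with Mg2+/Mn2+. ADP measured by ADP-Glo luminescence; activity expressed as % of vehicle control, no-enzyme wells as low control.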
On to `Cc1ccc(C(=O)NC2CC2)cc1-c1cnn(-c2cncc(C(=O)N(C)C)c2)c1` [Example 49, 5-{4-[5-(cyclopropylcarbamoyl)-2-methylphenyl]-1H-pyrazol-1-yl}-N,N-dimethylpyridine-3-carboxamide], for which the IC50 was found to be 390 nM.

`Cc1ccc(C(=O)NC2CC2)cc1-c1cnn(-c2cncc(NC3CCN(C4CCOCC4C)CC3)c2)c1` (stereo not shown) [Example 164, N-cyclopropyl-4-methyl-3-[1-(5-{[1-(3-methyloxan-4-yl)piperidin-4-yl]amino}pyridin-3-yl)-1H-pyrazol-4-yl]benzamide] registered an IC50 of 2.1 nM.

On to `Cc1cncc(-n2cc(-c3cc(C(=O)NC4CC4)ccc3C)cn2)c1` [Example 119, N-cyclopropyl-4-methyl-3-[1-(5-methylpyridin-3-yl)-1H-pyrazol-4-yl]benzamide], for which the half-inhibitory concentration (IC50) turned out to be 24 nM.

Compound `Cc1ccc(C(=O)NC2CC2)cc1-c1cn(-c2cncc(N(C)C)c2)cn1` [Example 72, N-cyclopropyl-3-{1-[5-(dimethyl-amino)pyridin-3-yl]-1H-imidazol-4-yl}-4-methylbenzamide] had a half-maximal inhibitory concentration (IC50) of 3.9 nM. Compared with the last compound, the IC50 is about 6.2-fold lower.

Consider `Cc1ccc(C(=O)NC2CC2)cc1-c1cnn(-c2cncc(NC(=O)NC3CCOC3)c2)c1` (stereo not shown) [Example 142, N-cyclopropyl-4-methyl-3-[1-(5-{[(oxolan-3-yl)carbamoyl]amino}pyridin-3-yl)-1H-pyrazol-4-yl] benzamide], for which half-maximal inhibition (IC50) required 3.2 nM.

On to `Cc1ccc(C(=O)NC2CC2)cc1-c1cnn(-c2cncc(C(F)(F)F)c2)c1` [Example 47, N-cyclopropyl-4-methyl-3-{1-[5-(trifluoromethyl)pyridin-3-yl]-1H-pyrazol-4-yl}benzamide], for which the IC50 came to 57 nM.

On to `Cc1ccc(C(=O)NC2CC2)cc1-c1cnn(-c2cncc(OCC3CCOCC3)c2)c1` [Example 147, N-cyclopropyl-4-methyl-3-{1-[5-(oxan-4-ylmethoxy)pyridin-3-yl]-1H-pyrazol-4-yl}benzamide], for which half-maximal inhibition (IC50) was put at 8.1 nM.

Consider `Cc1ccc(C(=O)NC2CC2)cc1-c1cnn(-c2cncc(NC(C)C3CCOC3)c2)c1` (stereo not shown) [Example 67, N-cyclopropyl-4-methyl-3-[1-(5-{[1-(oxolan-3-yl)ethyl]amino}pyridin-3-yl)-1H-pyrazol-4-yl]benzamide], for which inhibition was half-maximal at 1.6 nM (IC50).

Turning to `Cc1ccc(C(=O)NC2CC2)cc1-c1cnn(-c2cccnc2)c1` [Example 34, N-cyclopropyl-4-methyl-3-[1-(pyridin-3-yl)-1H-pyrazol-4-yl] benzamide], the IC50 came to 38 nM.

`Cc1cc(F)c(C(=O)NC2CC2)cc1-c1cnn(-c2cncc(NC3CCN(CCF)CC3)c2)c1` [Example 174, N-Cyclopropyl-2-fluoro-5-(1-{5-[1-(2-fluoro-ethyl)-piperidin-4-ylamino]-pyridin-3-yl}-1H-pyrazol-4-yl)-4-methyl-benzamide] showed a 50% inhibitory concentration (IC50) of 1.5 nM. This IC50 lies about 25-fold lower than the previous one.

The compound `Cc1ccc(C(=O)NC2CC2)cc1-c1cnn(-c2cncc(NC3CCNCC3)c2)c1` [Example 92, N-cyclopropyl-4-methyl-3-(1-{5-[(piperidin-4-yl)amino]pyridin-3-yl}-1H-pyrazol-4-yl)benzamide] showed an IC50 of 1.5 nM.

Compound `Cc1cc(F)c(C(=O)NC2CC2)cc1-c1cnn(-c2cncc(OC[C@H]3CCN(C)C3)c2)c1` [Example 172, N-Cyclopropyl-2-fluoro-4-methyl-5-{1-[5-((S)-1-methyl-pyrrolidin-3-ylmethoxy)-pyridin-3-yl]-1H-pyrazol-4-yl}-benzamide] showed an IC50 of 1.8 nM.

The compound `Cc1ccc(C(=O)NC2CC2)cc1-c1cnn(-c2cncc(OC3CCCC3)c2)c1` [Example 148, 3-{1-[5-(cyclopentyloxy)pyridin-3-yl]-1H-pyrazol-4-yl}-N-cyclopropyl-4-methylbenzamide] displayed a concentration for half-maximal inhibition (IC50) of 12 nM.

`Cc1ccc(C(=O)NC2CC2)cc1-c1cnn(-c2cncc(OC3CCC(C#N)C3)c2)c1` (stereo not shown) [Example 151, 3-(1-{5-[(3-cyanocyclopentyl)oxy]pyridin-3-yl}-1H-pyrazol-4-yl)-N-cyclopropyl-4-methylbenzamide] gave a concentration for half-maximal inhibition (IC50) of 6.4 nM.

Compound `Cc1ccc(C(=O)NC2CC2)cc1-c1cnn(-c2cncc(N[C@@H]3C[C@H]4CC[C@@H]3O4)c2)c1` [Example 66, N-cyclopropyl-4-methyl-3-[1-(5-{[(1S,2R,4R)-7-oxabicyclo[2.2.1]heptan-2-yl]amino}pyridin-3-yl)-1H-pyrazol-4-yl]benzamide] had an IC50 of 3.9 nM.

Compound `Cc1ccc(C(=O)NC2CC2)cc1-c1cnn(-c2cncc(C3(C#N)CC3)c2)c1` [Example 131, 3-{1-[5-(1-cyanocyclopropyl)pyridin-3-yl]-1H-pyrazol-4-yl}-N-cyclo-propyl-4-methylbenzamide] gave an IC50 of 11 nM.

In turn, `Cc1ccc(C(=O)NC2CC2)cc1-c1cnn(-c2cncc(OC(C)C)c2)c1` [Example 81, N-cyclopropyl-4-methyl-3-{1-[5-(propan-2-yloxy)pyridin-3-yl]-1H-pyrazol-4-yl}benzamide] had an IC50 of 5.4 nM.

`Cc1ccc(C(=O)NC2CC2)cc1-c1cnn(-c2cncc(N3CCN(C)CC3)c2)c1` [Example 100, N-cyclopropyl-4-methyl-3-{1-[5-(4-methylpiperazin-1-yl)pyridin-3-yl]-1H-pyrazol-4-yl}benzamide] had an IC50 of 29 nM.

With `COCCC(=O)Nc1cncc(-n2cc(-c3cc(C(=O)NC4CC4)ccc3C)cn2)c1` [Example 143, N-cyclopropyl-3-{1-[5-(3-methoxypropanamido)pyridin-3-yl]-1H-pyrazol-4-yl}-4-methylbenzamide], the half-maximal inhibitory concentration (IC50) was 6.1 nM.

`CN(C)c1cncc(-n2cc(-c3cc(C(=O)NC4CC4)c(F)cc3Cl)cn2)n1` [Example 123, 4-chloro-N-cyclopropyl-5-{1-[6-(dimethylamino)pyrazin-2-yl]-1H-pyrazol-4-yl}-2-fluorobenzamide] displayed an IC50 of 43 nM. This IC50 lies about 7-fold higher than the previous one.

On to `Cc1ccc(C(=O)NC2CC2)cc1-c1cnn(-c2cncc(NC(=O)C(C)C)c2)c1` [Example 113, N-cyclopropyl-4-methyl-3-{1-[5-(2-methylpropanamido)pyridin-3-yl]-1H-pyrazol-4-yl}benzamide], for which half-maximal inhibition (IC50) required 3.5 nM.

With `Cc1ccc(C(=O)NC2CC2)cc1-c1cnn(-c2cncc(NC(=O)C3CCC3)c2)c1` [Example 115, 3-[1-(5-cyclobutaneamidopyridin-3-yl)-1H-pyrazol-4-yl]-N-cyclopropyl-4-methylbenzamide], the IC50 worked out at 2.7 nM.

In the case of `Cc1ccc(C(=O)NC2CC2)cc1-c1cnn(-c2cncc(NC3CCN(CC4C5COCC54)CC3)c2)c1` (stereo not shown) [Example 167, N-cyclopropyl-4-methyl-3-(1-{5-[(1-{3-oxabicyclo[3.1.0]hexan-6-ylmethyl}piperidin-4-yl)amino]pyridin-3-yl}-1H-pyrazol-4-yl) benzamide], the IC50 stood at 1 nM.

The compound `Cc1ccc(C(=O)NC2CC2)cc1-c1cnn(-c2cncc(NC3CCN(C(C)CCO)CC3)c2)c1` (stereo not shown) [Example 153, N-cyclopropyl-3-[1-(5-{[1-(4-hydroxybutan-2-yl)piperidin-4-yl]amino}pyridin-3-yl)-1H-pyrazol-4-yl]-4-methylbenzamide] yielded an IC50 of 1.6 nM.

Take `Cc1ccc(C(=O)NC2CC2)cc1-c1cnn(-c2cncc(N(C)C)n2)c1` [Example 118, N-cyclopropyl-3-{1-[6-(dimethylamino)pyrazin-2-yl]-1H-pyrazol-4-yl}-4-methylbenzamide]: the midpoint of inhibition, the IC50, lay at 110 nM. This IC50 is about 69-fold higher than that of the compound before.

Compound `O=C(NC1CC1)c1ccc(Cl)c(-c2cnn(-c3cccnc3)c2)c1` [Example 31, 4-chloro-N-cyclopropyl-3-[1-(pyridin-3-yl)-1H-pyrazol-4-yl]benzamide] yielded an IC50 of 94 nM. This IC50 and that of the compound before are within 1.5-fold of each other.

`Cc1ccc(C(=O)NC2CC2)cc1-c1cnn(-c2cncc(NC3CCCCC3)c2)c1` [Example 97, 3-{1-[5-(cyclohexylamino)pyridin-3-yl]-1H-pyrazol-4-yl}-N-cyclo-propyl-4-methylbenzamide]: the IC50 is 3.3 nM.

Turning to `Cc1ccc(C(=O)NC2CC2)cc1-c1cnn(-c2cncc(NC3CCN(C(=O)OC(C)(C)C)CC3)c2)c1` [Example 73, tert-butyl 4-[(5-{4-[5-(cyclopropylcarbamoyl)-2-methyl-phenyl]-1H-pyrazol-1-yl}pyridin-3-yl)amino]piperidine-1-carboxylate], the IC50 was 15 nM. This IC50 lies about 4.5-fold higher than the previous one.

As for `CCOc1cncc(-n2cc(-c3cc(C(=O)NC4CC4)ccc3C)cn2)c1` [Example 36, N-cyclopropyl-3-[1-(5-ethoxypyridin-3-yl)-1H-pyrazol-4-yl]-4-methyl-benzamide], the IC50 was found to be 8.8 nM.

The compound `Cc1ccc(C(=O)NC2CC2)cc1-c1cnn(-c2cncc(NC3CCN(CC4CCOCC4)CC3)c2)c1` [Example 155, N-cyclopropyl-4-methyl-3-[1-(5-{[1-(oxan-4-ylmethyl)piperidin-4-yl]amino}pyridin-3-yl)-1H-pyrazol-4-yl]benzamide] registered a half-maximal inhibitory concentration (IC50) of 1.7 nM.

For the compound `Cc1ccc(C(=O)NC2CC2)cc1-c1cnn(-c2cncc(C(=O)O)c2)c1` [Example 48, 5-{4-[5-(cyclopropylcarbamoyl)-2-methylphenyl]-1H-pyrazol-1-yl} pyridine-3-carboxylic acid], the IC50 was found to be 33 nM.

`Cc1ccc(C(=O)NC2CC2)cc1-c1cnn(-c2cncc(C3(O)CCOC3)c2)c1` (stereo not shown) [Example 138, N-cyclopropyl-3-{1-[5-(3-hydroxy-oxolan-3-yl)pyridin-3-yl]-1H-pyrazol-4-yl}-4-methylbenzamide] gave an IC50 of 25 nM.

On to `Cc1ccc(C(=O)NC2CC2)cc1-c1cnn(-c2cncc(NC(=O)C(C)(C)C)c2)c1` [Example 121, N-cyclopropyl-3-{1-[5-(2,2-dimethylpropanamido)pyridin-3-yl]-1H-pyrazol-4-yl}-4-methyl-benzamide], for which the IC50 was found to be 13 nM.

Compound `Cc1ccc(C(=O)NC2CC2)cc1-c1cnn(-c2cncc(C3(C(N)=O)CC3)c2)c1` [Example 101, 3-{1-[5-(1-carbamoylcyclopropyl)pyridin-3-yl]-1H-pyrazol-4-yl}-N-cyclopropyl-4-methylbenzamide] registered an IC50 of 370 nM.
